Reference: patent US20070270421A1, “Novel pyridine Derivative and Pyrimidine Derivative (1)” (priority 2004, published 2007)

Target: T1, HGFR (His6-HGFR cytoplasmic domain) (Homo sapiens, UniProt P08581)
T1 construct: made in house; host or cells: Spodoptera frugiperda Sf9 insect cells (baculovirus, pFastBac-HT)
Experiment: Inhibitory activity against HGFR tyrosine kinase activity (HTRF)
Format: biochemical
Details: biotin-poly(GT), ATP, 30° C. 10 min, read-out: IC50 (concentration necessary to inhibit HGFR kinase activity by 50%)
Description: The cytoplasmic domain of HGFR (Genbank Accession No. J02958) is a 1.3 kb DNA fragment beginning with Lys974 and including a stop codon, and described by Park et al. (Proc. Natl. Acad. Sci. U.S.A. 84(18), 6379-6383, 1987). The DNA fragment was isolated from the human placental cDNA library (purchased from Clontech) by PCR (TaKaRa Ex Taq™ Kit, purchased from TaKaRa) using two kinds of primers (SEQ ID NO: 1, 5′-[…]-3′ and SEQ ID NO: 2, 5′-[…]-3′, purchased from Invitrogen). The DNA fragment was cloned into a baculovirus transplace vector (pFastBac™-HT (purchased from GIBCO BRL)) to produce a recombinant construct. The construct was transfected into insect cells (Spodoptera frugiperda 9 (Sf9)) to produce a solution of HGFR transfected baculovirus (preparation of a recombinant baculovirus can be found in the standard text (Bac-to-Bac Baculovirus Expression System (GIBCO BRL)). The cloning of the other receptor tyrosine kinases and preparation of the recombinant baculovirus solutions were performed using a cytoplasmic fragment starting from Lys791 (VEGFR2, Genbank Accession No. L04947), a cytoplasmic fragment starting from Lys398 (FGFR1, Genbank Accession No. X52833) and a cytoplasmic fragment starting from Lys558 (PDGFRβ, Genbank Accession No. M21616) in stead of HGFR in the above method. EGFR was purchased from Sigma (Production No. E-2645).
To the suspension of Sf9 cells (3×10^8 cells) in SF-900II medium (purchased from Invitrogen) containing 2% FBS was added a solution of HGFR transfected baculovirus above (4 ml), followed by a shaking culture at 27° C. for 48 hrs. The cells infected with the HGFR transfected baculovirus were centrifuged at 1,000 rpm, 4° C. for 5 min to remove the supernatant. The precipitated infected cells were suspended in 80 ml of ice-cold PBS, and centrifuged at 1,000 rpm, 4° C. for 5 min to remove the supernatant. The precipitated infected cells were suspended in 40 ml of ice-cold Lysis Buffer (50 mM Tris-HCl (pH 8.5), 5 mM 2-mercaptoethanol, 100 mM KCl, 1 mM PMSF and 1% (v/v) NP-40). The suspension was centrifuged at 12,000 rpm, 4° C. for 30 min to provide a supernatant.
The supernatant was loaded onto an Ni-NTA agarose column (3 ml, purchased from Qiagen) equilibrated with 30 ml of Buffer A (20 mM Tris-HCl (pH 8.5), 5 mM 2-mercaptoethanol, 500 mM KCl, 20 mM imidazole and 10% (v/v) glycerol). The column was washed with 30 ml of Buffer A, 6 ml of Buffer B (20 mM Tris-HCl (pH 8.5), 5 mM 2-mercaptoethanol, 1 M KCl, and 10% (v/v) glycerol) and 6 ml of Buffer A in this order. Then, the column was eluted with 6 ml of Buffer C (20 mM Tris-HCl (pH 8.5), 5 mM 2-mercaptoethanol, 100 mM KCl, 100 mM imidazole, and 10% (v/v) glycerol) to provide a fraction. The fraction was entrapped in a dialysis membrane (purchased from Spectrum Laboratories), dialyzed at 4° C. overnight with 1 L of dialysis buffer (20 mM Tris-HCl (pH 7.5), 10% (v/v) glycerol, 1 mM dithiothreitol, 0.1 mM Na3VO4 and 0.1 mM EGTA), and stored at −80° C. until used. An aliquot of the dialyzed fraction was subjected to SDS electrophoresis, and then a recombinant protein (His6-HGFR, the HGFR cytoplasmic domain fused with six histidine at the N terminus) detected at a molecular weight of about 60 kDa when stained with Coomassie Brilliant Blue, was determined with regard to protein content using BSA (purchased from Sigma) as a standard. The VEGFR2 cytoplasmic domain, the FGFR1 cytoplasmic domain, and the PDGFRβ cytoplasmic domain were fused with six histidine at the N terminus by the similar method to produce respective recombinant proteins (His6-VEGFR2, His6-FGFR1, and His6-PDGFRβ). […]

T1 sequence (P08581 956-1390 limits assumed): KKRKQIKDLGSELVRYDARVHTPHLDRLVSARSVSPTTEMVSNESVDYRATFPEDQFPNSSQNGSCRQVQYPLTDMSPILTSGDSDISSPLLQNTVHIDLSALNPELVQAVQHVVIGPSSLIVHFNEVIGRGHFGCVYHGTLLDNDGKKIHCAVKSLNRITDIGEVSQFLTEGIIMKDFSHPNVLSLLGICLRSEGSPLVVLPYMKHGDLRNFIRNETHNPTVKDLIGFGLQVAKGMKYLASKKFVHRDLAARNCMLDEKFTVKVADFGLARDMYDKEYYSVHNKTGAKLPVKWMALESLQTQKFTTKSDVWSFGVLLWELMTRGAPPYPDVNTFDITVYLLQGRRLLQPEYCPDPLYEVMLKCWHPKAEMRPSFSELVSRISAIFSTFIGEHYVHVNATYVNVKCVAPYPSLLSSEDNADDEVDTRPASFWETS

Row | Structure (SMILES) | IC50 [nM]
1 | CN1CC[C@H](N(C)C(=O)Nc2cc(Oc3ccc(NC(=S)NC(=O)Cc4ccc(F)cc4)c(F)c3)ncn2)C1 [Example 281, 3-[6-(3-Fluoro-4-{3-[2-(4-fluorophenyl)acetyl]thioureido}phenoxy)pyrimidin-4-yl]-1-methyl-1-[(3S)-1-methylpyrrolidin-3-yl]urea] | 28
2 | O=C(Cc1ccc(F)cc1)NC(=S)Nc1ccc(Oc2cc(NC(=O)N3CCOCC3)ncn2)c(F)c1 [Example 4, Morpholine-4-carboxylic acid [6-[2-fluoro-4-{3-[2-(4-fluorophenyl)acetyl]thioureido}phenoxy)pyrimidin-4-yl]amide] | 30
3 | O=C(Cc1ccccc1)NC(=S)Nc1ccc(Oc2ccnc(NC(=O)N3CCC(N4CCC4)CC3)c2)c(F)c1 [Example 39, 2-{[4-(Azetidin-1-yl)piperidin-1-yl]carbonylamino}-4-{2-fluoro-4-[3-(2-phenylacetyl)thioureido]phenoxy}pyridine] | 50
4 | CN(C)CCN1CCC(N(C)C(=O)Nc2cc(Oc3ccc(NC(=S)NC(=O)Cc4ccc(F)cc4)cc3F)ccn2)CC1 [Example 224, 1-[1-(2-Dimethylaminoethyl)piperidin-4-yl]-3-[4-(2-fluoro-4-{3-[2-(4-fluorophenyl)acetyl]thioureido}phenoxy)pyridin-2-yl]-1-methylurea] | 88
5 | CN1CC(N2CCN(C(=O)Nc3cc(Oc4ccc(NC(=O)NC(=O)Cc5ccc(F)cc5)cc4)ccn3)CC2)C1 [Example 376, 4-(1-Methylazetidin-3-yl)piperazine-1-carboxylic acid [4-(4-{3-[2-(4-fluorophenyl)acetyl]ureido}phenoxy)pyridin-2-yl]amide] | 65
6 | CN(C)C[C@H]1CCN(C(=O)Nc2cc(Oc3ccc(NC(=S)NC(=O)Cc4ccc(F)cc4)cc3F)ncn2)C1 [Example 209, 4-{[(3R)-3-(Dimethylaminomethyl)pyrrolidin-1-yl]carbonylamino}-6-(2-fluoro-4-{3-[2-(4-fluorophenyl)acetyl]thioureido}phenoxy)pyrimidine] | 65
7 | CCN1CCC(N(C)C(=O)Nc2cc(Oc3ccc(NC(=S)NC(=O)Cc4ccc(F)cc4)cc3F)ncn2)CC1 [Example 285, 1-(1-Ethylpiperidin-4-yl)-3-[6-(2-fluoro-4-{3-[2-(4-fluorophenyl)acetyl]thioureido}phenoxy)pyrimidin-4-yl]-1-methylurea] | 51
8 | CN(C)CCN1CCC(N(C)C(=O)Nc2cc(Oc3ccc(NC(=S)NC(=O)Cc4ccc(F)cc4)c(F)c3)ccn2)CC1 [Example 183] | 160
9 | CN(C)[C@H]1CCN(C(=O)Nc2cc(Oc3ccc(NC(=S)NC(=O)Cc4ccc(F)cc4)cc3F)ncn2)C1 [Example 254, 4-{[(3S)-3-Dimethylaminopyrrolidin-1-yl]carbonylamino}-6-(2-fluoro-4-{3-[2-(4-fluorophenyl)acetyl]thioureido}phenoxy)pyrimidine] | 83
10 | CN(C)CC1CCN(C(=O)Nc2cc(Oc3ccc(NC(=O)NC(=O)Cc4ccc(F)cc4)cc3F)ccn2)CC1 [Example 347, 2-{[4-(Dimethylaminomethyl)piperidin-1-yl]carbonylamino}-4-(2-fluoro-4-{3-[2-(4-fluorophenyl)acetyl]ureido}phenoxy)pyridine] | 62
11 | COc1ccccc1NC(=O)CC(=O)Nc1ccc(Oc2ccnc(NC(=O)N3CCCC3)c2)c(F)c1 [Example 60, N-(2-methoxyphenyl)-N′-(3-fluoro-4-{2-[(pyrrolidine-1-carbonyl)amino]pyridin-4-yloxy}phenyl)malonamide] | 49
12 | CN(C)CCN1CCC(N(C)C(=O)Nc2cc(Oc3ccc(NC(=O)NC(=O)Cc4ccc(F)cc4)cc3)ccn2)CC1 [Example 354, 1-[1-(2-Dimethylaminoethyl)piperidin-4-yl]-3-[4-(4-{3-[2-(4-fluorophenyl)acetyl]ureido}phenoxy)pyridin-2-yl]-1-methylurea] | 160
13 | CN1CCN(C2CCN(C(=O)Nc3cc(Oc4ccc(NC(=S)NC(=O)Cc5ccc(F)cc5)cc4F)ncn3)CC2)CC1 [Example 192, 4-(2-Fluoro-4-{3-[2-(4-fluorophenyl)acetyl]thioureido}phenoxy)-6-{[4-(1-methylpiperazin-4-yl)piperidin-1-yl]carbonylamino}pyrimidine] | 40
14 | CN(C)CCCN1CCC(N(C)C(=O)Nc2cc(Oc3ccc(NC(=S)NC(=O)Cc4ccc(F)cc4)cc3F)ncn2)CC1 [Example 221, 1-[1-(3-Dimethylaminopropyl)piperidin-4-yl]-3-[6-(2-fluoro-4-{3-[2-(4-fluorophenyl)acetyl]thioureido}phenoxy)pyrimidin-4-yl]-1-methylurea] | 170
15 | CN1CCC[C@H](N(C)C(=O)Nc2cc(Oc3ccc(NC(=S)NC(=O)Cc4ccc(F)cc4)cc3F)ncn2)C1 [Example 322, 3-[6-(2-Fluoro-4-{3-[2-(4-fluorophenyl)acetyl]thioureido}phenoxy)pyrimidin-4-yl]-1-methyl-1-[(3S)-1-methylpiperidin-3-yl]urea] | 43
16 | O=C(Cc1ccc(F)cc1)NC(=S)Nc1ccc(Oc2cc(NC(=O)N3CCC(N4CCC4)CC3)ncn2)c(F)c1 [Example 172, 4-(Azetidin-1-yl)piperidine-1-carboxylic acid [6-(2-fluoro-4-{3-[2-(4-fluorophenyl)acetyl]thioureido}phenoxy)pyrimidin-4-yl]amide] | 64
17 | O=C(Cc1ccccc1)NC(=S)Nc1ccc(Oc2ccnc(NC(=O)N3CCC3)c2)cc1Cl [Example 100, Azetidine-1-carboxylic acid {4-[3-chloro-4-(3-phenylacetylthioureido)phenoxy]pyridin-2-yl}amide] | 200
18 | CCC(=O)Nc1cc(Oc2ccc(NC(=O)CC(=O)Nc3ccc(F)cc3)c(F)c2)ccn1 [Example 75, N-(4-Fluorophenyl)-N′-[4-(2-propionylaminopyridin-4-yloxy)-2-fluorophenyl]malonamide] | 54
19 | CN(C)CCN1CCN(C(=O)Nc2cc(Oc3ccc(NC(=S)NC(=O)Cc4ccccc4)cc3F)ccn2)CC1 [Example 309, 2-{[4-(2-Dimethylaminoethyl)piperazin-1-yl]carbonylamino}-4-(2-fluoro-4-{3-[2-(phenyl)acetyl]thioureido}phenoxy)pyridine] | 54
20 | O=C(Cc1ccc(F)cc1)NC(=S)Nc1ccc(Oc2cc(NC(=O)N3CCC(CN4CCCC4)CC3)ncn2)c(F)c1 [Example 349, 4-(Pyrrolidin-1-ylmethyl)piperidine-1-carboxylic acid [6-(2-fluoro-4-{3-[2-(4-fluorophenyl)acetyl]thioureido}phenoxy)pyrimidin-4-yl]amide] | 87
21 | CN(C)C(=O)Nc1cc(Oc2ccc(NC(=O)CC(=O)Nc3ccc(F)cc3)c(F)c2)ccn1 [Example 84, N-{4-[2-(3,3-Dimethylureido)pyridin-4-yloxy]-2-fluorophenyl}-N′-(4-fluorophenyl)malonamide] | 12
22 | O=C(Cc1ccc(F)cc1)NC(=S)Nc1ccc(Oc2ccnc(NC(=O)N3CCC(N4CCC(O)CC4)CC3)c2)cc1 [Example 190, 2-{[4-(4-Hydroxypiperidin-1-yl)piperidin-1-yl]carbonylamino}-4-(4-{3-[2-(4-fluorophenyl)acetyl]thioureido}phenoxy)pyridine] | 60
